Test system: corneal wounds (epithelial defects in the right eye)
Assay: Corneal wound healing in rabbits (epithelial defect, fluorescein staining, computerized area determination)
Type: in vivo, New Zealand White rabbits
Conditions: for Percentage of 1 hour post wound size: approximate, without standard deviation
Method: The study disclosed herein evaluates and quantifies the wound healing effects of histatins on the ocular surface of New Zealand White rabbits.
Epithelial defects are created in the right eye (oculus dexter, OD) of 12 New Zealand White rabbits. Due to animal regulations, bilateral wounding is not permitted. After the epithelial defects are made, the rabbits are randomized into treatment groups. Two (2) groups are treated with different cyclized histatin concentrations: 0.1 μg/ml and 10 μg/ml dissolved into an ophthalmic artificial tear preparation and delivered to the rabbits as an eye drop three times daily. Histatins known in the art, including, but not limited to, amino acid SEQ. ID. NOs. 1 through 33, which include Hst-1 (SEQ. ID. NO. 4), Hst-2 (SEQ. ID. NO. 5), Hst-3 (SEQ. ID. NO. 6), Hst-5 (SEQ. ID. NO. 30), and sortase cyclized histatin (SEQ. ID. NO. 33), may be used in these studies or in treatment protocols. […] This control group should receive the same vehicle identical to the other two groups but without histatin. An over-the-counter artificial tear preferably serves as the vehicle. The initial study included four (4) animals/group in three (3) groups, for a total of twelve rabbits.
Each rabbit group is preferably given moxifloxicin treatment to prevent infection.
The corneal wounds are then evaluated daily for the corneal wound healing abilities of histatin via fluorescein staining, fluorescent slit lamp biomicrophotography and computerized area determination. Evaluators are masked to the therapeutic treatment given to the rabbits. After healing, two (2) animals from each group are euthanized, and the corneas collected for histological processing (H&E staining with subsequent evaluation by veterinary histopathologist). The decision to perform histopathologic analysis after tissue procurement is made only if there is proven difference in healing between the different treatment groups and the controls. At study termination (study preferably continues for seven days), the remaining animals are euthanized.
The histatin used in this study was cyclized histatin 1. The histatin 1 used was a sortase cyclized histatin with amino acid SEQ. ID. NO.

## cyclo(DNLPETGGDSHEKRHHGYRRKFHEKHHSHREFPFYGDYGSNYLY) [cyclized histatin 1]
0.1 μg/ml eye drop three times daily, 0 hours post wound
  corneal wound size: 112.7 ± 37.8 mm^2
0.1 μg/ml eye drop three times daily, 6 hours post wound
  corneal wound size: 96.2 ± 13.6 mm^2
0.1 μg/ml eye drop three times daily, 24 hours post wound
  corneal wound size: 77.5 ± 25.0 mm^2
0.1 μg/ml eye drop three times daily, 30 hours post wound
  corneal wound size: 48.8 ± 8.0 mm^2
0.1 μg/ml eye drop three times daily, 48 hours post wound
  corneal wound size: 2.7 ± 3.1 mm^2
0.1 μg/ml eye drop three times daily, 54 hours post wound
  corneal wound size: 0.00 ± 0.00 mm^2
0.1 μg/ml eye drop three times daily, 72 hours post wound
  corneal wound size: 0.00 ± 0.00 mm^2
0.1 μg/ml or 10 μg/ml versus vehicle control, rabbits
  healing activity of corneal wounds versus control: significant dose dependent accelerated healing activity
0.1 ug/ml, 0 hours post wound
  Percentage of 1 hour post wound size: 100%
0.1 ug/ml, 6 hours post wound
  Percentage of 1 hour post wound size: 85%
0.1 ug/ml, 24 hours post wound
  Percentage of 1 hour post wound size: 69%
0.1 ug/ml, 30 hours post wound
  Percentage of 1 hour post wound size: 43%
0.1 ug/ml, 48 hours post wound
  Percentage of 1 hour post wound size: 2%
0.1 ug/ml, 54 hours post wound
  Percentage of 1 hour post wound size: 0%
0.1 ug/ml, 72 hours post wound
  Percentage of 1 hour post wound size: 0%
10 μg/ml eye drop three times daily, 0 hours post wound
  corneal wound size: 88.4 ± 31.6 mm^2
10 μg/ml eye drop three times daily, 6 hours post wound
  corneal wound size: 74.0 ± 14.7 mm^2
10 μg/ml eye drop three times daily, 24 hours post wound
  corneal wound size: 51.4 ± 9.3 mm^2
10 μg/ml eye drop three times daily, 30 hours post wound
  corneal wound size: 37.7 ± 9.4 mm^2
10 μg/ml eye drop three times daily, 48 hours post wound
  corneal wound size: 0.00 ± 0.07 mm^2
10 μg/ml eye drop three times daily, 54 hours post wound
  corneal wound size: 0.00 ± 0.00 mm^2
10 μg/ml eye drop three times daily, 72 hours post wound
  corneal wound size: 0.00 ± 0.00 mm^2
10 ug/ml, 0 hours post wound
  Percentage of 1 hour post wound size: 100%
10 ug/ml, 6 hours post wound
  Percentage of 1 hour post wound size: 84%
10 ug/ml, 24 hours post wound
  Percentage of 1 hour post wound size: 58%
10 ug/ml, 30 hours post wound
  Percentage of 1 hour post wound size: 43%
10 ug/ml, 48 hours post wound
  Percentage of 1 hour post wound size: 0%
10 ug/ml, 54 hours post wound
  Percentage of 1 hour post wound size: 0%
10 ug/ml, 72 hours post wound
  Percentage of 1 hour post wound size: 0%

Reference: US20130310326A1, “Histatin for Corneal Wound Healing and Ocular Surface Disease” (RAPID PATHOGEN SCREENING, INC., priority 2012, published 2013)
